# Where a name gives a salt, the structure may show the parent alone. Read-outs that look alike come from different tables or passages of the source.
# How the values were obtained:
# [1] = Buffer stability (phosphate buffer, 37° C., HPLC); format: physicochemical
# Procedure: The representative compounds were first dissolved in a minimum quantity of DMSO in a volumetric flask and diluted up to the mark with diluent (water: acetonitrile 30:70). […] After the elapsed time, the buffer samples were diluted 4 times with acetonitrile and injected into an HPLC system. Quantification of representative compounds was done by HPLC.
# HPLC method: Chromatographic separation was achieved on a Hypersil BDS C18 (100×4.6 mm, 5 μ) column using 25 mM KH2PO4 buffer (pH 7 with TEA): acetonitrile, 90:10 v/v as mobile phase-A and 25 mM KH2PO4 buffer (pH 7 with TEA): acetonitrile 30:70 v/v as mobile phase-B. The gradient started with initially 5% B to 45% B in 10 mins followed by 80% B in 22 mins and held up to 25 mins and then returned to initial conditions at 26 mins and continued up to 30 mins. The injection volume was kept 10 μL and the flow rate was kept at 1.0 mL/min. The UV-Vis Detector was set at 220 nm, the column oven was set at 37° C. and the sample cooler was set at […]. Total chromatographic runtime was 30 min.
# HT-29 cells = assay: In-vitro cancer cell growth inhibition assay (MTT); format: cell-based; settings: Homo sapiens, read-out: IC50 (nM) HT-29
# Procedure: (§1) The compounds of the present invention were evaluated for their ability to inhibit the growth of various cell line models of small cell lung cancer (SCLC), colon cancer, pancreatic cancer and triple negative breast cancer (TNBC) in-vitro. Details of the cell lines and their respective complete growth media are described in Table 3. The growth inhibition assay was carried out as described below. Briefly, cells in complete growth media were seeded in 96-well plates at appropriate cell densities (seeding density details described in Table 3) and incubated at 37° C., 5% CO2 (3-4 hours for NCI-H526, NCI-H69, NCI-H187 and overnight for the rest of the cells). Serial dilutions of test compound in DMSO were added to the cells while maintaining the final DMSO concentration of 0.4%-0.5% in the well. Plates were incubated for 96-144 h (the exact duration for each assay is described in Table 3) at 37° C., 5% CO2. Subsequently, MTT (final concentration 0.5 mg/mL in media) was incubated with the cells at 37° C., 5% CO2 for 4-5 hours. The formazan crystals were dissolved overnight at 37° C., 5% CO2 using 100 μL extractant (10% SDS in 0.01N HCl) and quantified using absorbance at 570 nm with reference wavelength 630 nm. Growth inhibition was represented as percent decrease in absorbance compared to vehicle treated cells.
# MDA-MB-231 cells = assay: In-vitro cancer cell growth inhibition assay (MTT); format: cell-based; settings: Homo sapiens, read-out: IC50 (nM) MDA-MB-231
# Procedure: as §1
# MDA-MB-468 cells = assay: In-vitro cancer cell growth inhibition assay (MTT); format: cell-based; settings: Homo sapiens, read-out: IC50 (nM) MDA-MB-468
# Procedure: as §1
# MX-1 cells = assay: In-vitro cancer cell growth inhibition assay (MTT); format: cell-based; settings: Homo sapiens, read-out: IC50 (nM) MX-1
# Procedure: as §1
# NCI H526 cells = assay: In-vitro cancer cell growth inhibition assay (MTT); format: cell-based; settings: Homo sapiens, NCI-H526, 96-144 h, read-out: IC50 (nM) NCI H526
# Procedure: as §1
# NCI H69 cells = assay: In-vitro cancer cell growth inhibition assay (MTT); format: cell-based; settings: Homo sapiens, read-out: IC50 (nM) NCI H69
# Procedure: as §1
# PANC-1 cells = assay: In-vitro cancer cell growth inhibition assay (MTT); format: cell-based; settings: Homo sapiens, read-out: IC50 (nM) PANC-1
# Procedure: as §1
# NCI H187 cells = assay: In-vitro cancer cell growth inhibition assay (MTT); format: cell-based; settings: Homo sapiens
# Procedure: as §1, with “Plates were incubated for 96-144 h (the exact duration for each assay is described in Table 3) at 37° C., 5% CO2.” left out
# [2] = Comparison of solubility in water; format: physicochemical
# Source text: Comparison of Solubility of Compound I.4 in Water with SN-38
# [3] = In-vitro stability in mice tumor lysate; settings: for % Remaining in tumor lysate: spiked 2000 ng/mL, pH 5.5, 37° C.
# Procedure: Aliquot of 100 μL were taken from stability samples in pre-labelled micro-centrifuge tubes. 5 μL of cetirizine working internal standard (5 μg/mL) was added to each tube and vortexed well. 1 mL acetonitrile was added to each tube and vortexed well and then centrifuge at 10000 RPM for 5 min at room temperature. The supernatant was collected in ria vials and evaporated to dryness under nitrogen stream. The samples were reconstituted in 1 mL of 0.1% formic acid in water: acetonitrile 30:70 v/v. The prepared samples were analyzed using LC-MS/MS method. Quantification was done against SN-38 standard, prepared at 2000 ng/mL concentration. SN-38 standard prepared by spiking 5 μL of SN-38 working standard to 95 μL of blank mice tumor homogenate to achieve 2000 ng/mL concentration and vortexed well and processed as described.
# LC-MS/MS Method: Chromatographic separation was achieved on Inertsil C8-3 (50×4.6 mm, 5 μ) with a flow rate of 250 μL/min and an injection volume of 10 μL. The sample cooler was maintained at 10° C. The column oven temperature was set to 40° C. The mobile phase consisted of 0.1% formic acid in Milli Q water and acetonitrile in the ratio of 30:70 v/v, respectively. […] The overall chromatographic run time was 4.0 minutes.
# Detection was performed by tandem mass spectrometry (TSQ Quantum, Discovery MAX, Thermo Electron Corporation) and peak areas were integrated using LCquan software version 2.9 QF1.
# 0 hr standard area was considered as 100% for calculation.
# [4] = NCI-H187, read-out: IC50 (nM) NCI H187
smiles,measurement,setting,value
"CCc1c2c(nc3ccc(O)cc13)-c1cc3c(c(=O)n1C2)COC(=O)[C@@]3(CC)OC(=O)OCCSSCCOC(=O)Nc1ccc(N2CCN(C)CC2)cc1.Cl [Compound I.2, 2-(2-{N-[4-(4-Methylpiperazin-1-yl)phenyl]carbamoyloxy}ethyldisulfanyl)ethyl [(4S)-4,11-diethyl-3,4,12,14-tetrahydro-9-hydroxy-1H-pyrano[3′,4′:6,7]indolizino[1,2-b]quinoline-3,14-(4H,12H)dione-4-yl] carbonate hydrochloride]",% of Unconverted Compounds of Formula I,"[1]; pH 4.7, 0 hr, 200 μg/ml",100%
same,% of Unconverted Compounds of Formula I,"[1]; pH 4.7, 2 hr, 200 μg/ml",97.3%
same,% of Unconverted Compounds of Formula I,"[1]; pH 4.7, 4 hr, 200 μg/ml",100%
same,% of Unconverted Compounds of Formula I,"[1]; pH 4.7, 6 hr, 200 μg/ml",100%
same,% of Unconverted Compounds of Formula I,"[1]; pH 4.7, 8 hr, 200 μg/ml",100%
same,% of Unconverted Compounds of Formula I,"[1]; pH 6.0, 0 hr, 200 μg/ml",100%
same,% of Unconverted Compounds of Formula I,"[1]; pH 6.0, 2 hr, 200 μg/ml",95.5%
same,% of Unconverted Compounds of Formula I,"[1]; pH 6.0, 4 hr, 200 μg/ml",98.5%
same,% of Unconverted Compounds of Formula I,"[1]; pH 6.0, 6 hr, 200 μg/ml",100%
same,% of Unconverted Compounds of Formula I,"[1]; pH 6.0, 8 hr, 200 μg/ml",100%
same,% of Unconverted Compounds of Formula I,"[1]; pH 7.4, 0 hr, 200 μg/ml",100%
same,% of Unconverted Compounds of Formula I,"[1]; pH 7.4, 2 hr, 200 μg/ml",90.1%
same,% of Unconverted Compounds of Formula I,"[1]; pH 7.4, 4 hr, 200 μg/ml",93.5%
same,% of Unconverted Compounds of Formula I,"[1]; pH 7.4, 6 hr, 200 μg/ml",88.7%
same,% of Unconverted Compounds of Formula I,"[1]; pH 7.4, 8 hr, 200 μg/ml",91.6%
same,IC50,"HT-29 cells; HT-29, 96 h",31 nM
same,IC50,"MDA-MB-231 cells; MDA-MB-231, 96 h",112 nM
same,IC50,"MDA-MB-468 cells; MDA-MB-468, 96 h",6.6 nM
same,IC50,"MX-1 cells; MX1, 144 h",5.9 nM
same,IC50,NCI H526 cells,1.58 nM
same,IC50,"NCI H69 cells; NCI-H69, 144 h",1.3 nM
same,IC50,"PANC-1 cells; PANC-1, 96 h",508 nM
same,IC50,NCI H187 cells; [4],0.27 nM
"CCc1c2c(nc3ccc(O)cc13)-c1cc3c(c(=O)n1C2)COC(=O)[C@@]3(CC)OC(=O)OCCSSCCOC(=O)N(C)c1ccc(N2CCN(C)CC2)cc1 [Compound I.4, 2-(2-{N-Methyl-N-[4-(4-methylpiperazin-1-yl)phenyl]carbamoyloxy}ethyldisulfanyl)ethyl [(4S)-4,11-diethyl-3,4,12,14-tetrahydro-9-hydroxy-1H-pyrano[3′,4′:6,7]indolizino[1,2-b]quinoline-3,14-(4H,12H)dione-4-yl] carbonate dihydrochloride]",Solubility in water,[2],Solubility: 100 mg/11 ml in water.
same,IC50,"MDA-MB-231 cells; MDA-MB-231, 96 h",129 nM
same,IC50,"MDA-MB-468 cells; MDA-MB-468, 96 h",8.2 nM
same,IC50,"MX-1 cells; MX1, 144 h",6.9 nM
same,% Remaining in tumor lysate,[3]; 0 hr,100.0%
same,% Remaining in tumor lysate,[3]; 1 hr,0.0%
same,% Remaining in tumor lysate,[3]; 2 hr,0.0%
same,% Remaining in tumor lysate,[3]; 4 hr,0.0%
same,% Remaining in tumor lysate,[3]; 6 hr,0.0%
same,% Remaining in tumor lysate,[3]; 8 hr,0.0%
same,time after incubation until cleaved to give active SN-38,"[3]; tumor lysate, 37° C.",≤ 1 h
"CCc1c2c(nc3ccc(O)cc13)-c1cc3c(c(=O)n1C2)COC(=O)[C@@]3(CC)OC(=O)OCCSSCCNC(=O)c1ccc(N2CCN(C)CC2)cc1 [Compound I.5, 2-(2-{4-[4-Methylpiperazin-1-yl]benzoylamino}ethyldisulfanyl) ethyl [(4S)-4,11-diethyl-3,4,12,14-tetrahydro-9-hydroxy-1H-pyrano[3′,4′:6,7]indolizino[1,2-b]quinoline-3,14-(4H,12H)dione-4-yl]carbonate dihydrochloride]",% of Unconverted Compounds of Formula I,"[1]; pH 4.7, 0 hr, 100 μg/ml (footnote *)",100%
same,% of Unconverted Compounds of Formula I,"[1]; pH 4.7, 2 hr, 100 μg/ml (footnote *)",82.5%
same,% of Unconverted Compounds of Formula I,"[1]; pH 4.7, 4 hr, 100 μg/ml (footnote *)",86.3%
same,% of Unconverted Compounds of Formula I,"[1]; pH 4.7, 6 hr, 100 μg/ml (footnote *)",79.9%
same,% of Unconverted Compounds of Formula I,"[1]; pH 4.7, 8 hr, 100 μg/ml (footnote *)",77.2%
same,% of Unconverted Compounds of Formula I,"[1]; pH 6.0, 0 hr, 100 μg/ml (footnote *)",100%
same,% of Unconverted Compounds of Formula I,"[1]; pH 6.0, 2 hr, 100 μg/ml (footnote *)",94.1%
same,% of Unconverted Compounds of Formula I,"[1]; pH 6.0, 4 hr, 100 μg/ml (footnote *)",100%
same,% of Unconverted Compounds of Formula I,"[1]; pH 6.0, 6 hr, 100 μg/ml (footnote *)",100%
same,% of Unconverted Compounds of Formula I,"[1]; pH 6.0, 8 hr, 100 μg/ml (footnote *)",98.4%
same,% of Unconverted Compounds of Formula I,"[1]; pH 7.4, 0 hr, 100 μg/ml (footnote *)",100%
same,% of Unconverted Compounds of Formula I,"[1]; pH 7.4, 2 hr, 100 μg/ml (footnote *)",88.0%
same,% of Unconverted Compounds of Formula I,"[1]; pH 7.4, 4 hr, 100 μg/ml (footnote *)",82.8%
same,% of Unconverted Compounds of Formula I,"[1]; pH 7.4, 6 hr, 100 μg/ml (footnote *)",82.5%
same,% of Unconverted Compounds of Formula I,"[1]; pH 7.4, 8 hr, 100 μg/ml (footnote *)",82.4%
same,IC50,"HT-29 cells; HT-29, 96 h",48.3 nM
same,IC50,"MDA-MB-231 cells; MDA-MB-231, 96 h",119 nM
same,IC50,"MDA-MB-468 cells; MDA-MB-468, 96 h",9.3 nM
same,IC50,"MX-1 cells; MX1, 144 h",4.6 nM
same,IC50,NCI H526 cells,2.06 nM
same,IC50,"NCI H69 cells; NCI-H69, 144 h",1.3 nM
same,IC50,"PANC-1 cells; PANC-1, 96 h",910 nM
same,IC50,NCI H187 cells; [4],0.77 nM
"CCc1c2c(nc3ccc(OC(=O)N4CCC(N5CCCCC5)CC4)cc13)-c1cc3c(c(=O)n1C2)COC(=O)[C@]3(O)CC [Irinotecan HCl trihydrate, reference compound]",IC50,"HT-29 cells; HT-29, 96 hr, MTT",14000 nM
same,IC50,"MDA-MB-231 cells; MDA-MB-231, 96 hr, MTT",21700 nM
same,IC50,"MDA-MB-468 cells; MDA-MB-468, 96 hr, MTT",4580 nM
same,IC50,"MX-1 cells; MX1, MX-1, 144 hr, MTT",5910 nM
same,IC50,NCI H526 cells; MTT,750 nM
same,IC50,"NCI H69 cells; NCI-H69, 144 hr, MTT",473 nM
same,IC50,"PANC-1 cells; PANC-1, 96 hr, MTT",23000 nM
same,IC50,"NCI H187 cells; NCI-H187, MTT, read-out: IC50 (nM) NCI H187",385 nM
